From patent publication US6410578B1, “Benzazole compounds and their use” (Novartis Animal Health US, Inc., priority 1998, dated 2002) come the findings set out here.

In experiment [1] the test system is Boophilus microplus Biarra (larvae). The experiment can be described thus: Arena test for vermin-repellent substances, Example A. To be noted: in vitro arena test, ca. 60 to 100 larvae per well; for duration of repellent/deterrent action compared with DEET: DEET as standard; for repellent/deterrent action: evaluation of video images. As to the method: (§1) This method is carried out in titre plates having 6 wells with a cross-section of 5 cm each, using a computer-supported video system. Each well of the titre plate is lined with a circular filter paper or another suitable carrier material. The substance of formula I to be tested is dissolved in methanol, acetonitrile or another suitable solvent, with ultrasound treatment and heating being employed for poorly-soluble substances. In an amount of 1 to 100 mg/cm^2, the dissolved test substance is placed in the centre of the filter paper on a quadrant or circular area of ca. 2.4 cm^2 radius. 4 of the 6 wells are filled with different test substances or with the same test substance in different dilutions (e.g. 1, 3.2, 5, 10 and 20 mg/cm^2). The 5th well is treated with DEET (N,N-diethyl-m-toluamide) as standard substance. The 6th well is filled with the pure solvent and serves as a control. 60 to 100 larvae or 25 to 50 nymphs or 10 to 25 adults of the parasite to be tested, e.g. ticks, are added to each filter paper, and the system is covered with a pane of glass and positioned under a video camera.
(§2) At intervals of 5 seconds, the video camera takes individual pictures of all 6 wells. For a qualitative evaluation, these images are observed in a time-lapse as a continuous film, optically following the movements of the parasites on the filter paper and comparing them with the movements in the control well no. 6 or with the standard in the 5th well. A qualitative observation is thus made as to whether the test parasites move evenly over the whole surface of the filter paper and ignore the test substance, or whether and over what period they avoid the treated zone, and what influence the dilution of the test substance has on the behaviour of the test parasites. In this way, neutral and repellent substances are determined. At the same time, the duration of activity of the test substance is determined and compared with that of the standard. By plotting all the images for each individual well over one another, different areas of density are obtained. This represents the frequency at which the parasites visit certain places. This frequency is evaluated statistically and thus quantitatively by the Willcoxon method in a comparison with the control and with the standard.
In vitro Test; Test Animal: Boophilus microplus Biarra (Larvae)
The test is carried out as described above, with ca. 60 to 100 larvae being added per well.

Experiment [2] relates to Amblyomma hebraeum or variegatum (nymphs). The experiment can be described thus: Arena test for vermin-repellent substances, Example B. To be noted: in vitro arena test, ca. 25 nymphs per well; for duration of repellent/deterrent action compared with DEET: DEET as standard; for repellent/deterrent action: evaluation of video images. As to the method: as §1, §2
In vitro Test; Test Animal: Amblyomma hebraeum or variegatum (Nymphs)
The test is carried out as described above, with ca. 25 nymphs being added per well.

Experiment [3] deals with Rhipicephalus sanguineus (nymphs). The experiment is described as follows: Arena test for vermin-repellent substances, Example C. To be noted: in vitro arena test, ca. 40 to 50 nymphs; for duration of repellent/deterrent action compared with DEET: DEET as standard; for repellent/deterrent action: evaluation of video images. How it is done: as §1, §2
In vitro Test; Test Animal: Rhipicephalus sanguineus (Nymphs)
The test is carried out analogously to example B, with ca. 40 to 50 nymphs.

Molecules are shown by their SMILES.

Consider `COc1cc2nc(C)sc2cc1OC` [5,6-dimethoxy-2-methylbenzothiazole], for which the “duration of repellent/deterrent action compared with DEET” value in experiment [1], in experiment [2] and in experiment [3] was “lasts considerably longer than that of DEET” throughout. Further, the repellent/deterrent action entry in experiment [1], in experiment [2] and in experiment [3] was “almost complete repellent/deterrent action” each time.

Consider `Cc1nc2cc(N)ccc2s1` [5-amino-2-methylbenzothiazole], for which the “duration of repellent/deterrent action compared with DEET” value in experiment [1], in experiment [2] and in experiment [3] was “lasts considerably longer than that of DEET” throughout. Moreover, the repellent/deterrent action result in experiment [1], in experiment [2] and in experiment [3] was “almost complete repellent/deterrent action” throughout.
